Results as given in patent US4622430A (priority 1982, dated 1986).
Like-named read-outs stand apart in the source and are kept apart here.

Experiments:
[1] = tested on: CVS strain of rabies virus; type: in vivo, in Swiss-Webster mice
[2] = tested on: oxotremorine-induced tremor and salivation; experiment: Anti-oxotremorine test in the mouse; settings: 0-3 scale; for Mean salivation score (± s.e.): vehicle 2,7-2,9; for Mean tremor score (± s.e.): vehicle 2,6-2,9
[3] = Irwin dose-range study/acute toxicity in the mouse; set-up: species or system Male CD-1 mice; settings: in vivo; for selectivity ratio: LD50 acute oral toxicity / ED50 reserpine catalepsy, read-out: Therapeutic index (LD50/ED50); for LD50 at 168 h: oral, 7 days observation, method of Horn
Excerpt: Irwin Dose-Range Study/Acute Toxicity in the Mouse
The animals were also observed daily for seven days post-dose and any mortalities noted. LD50 values were estimated using the method of Horn (Biometrics, 12, 311 (1956)).

[4] = tested on: reserpine-induced catalepsy; experiment: Antagonism of reserpine-induced catalepsy in the mouse; type: in vivo, Male CD-1 mice; settings: 0.75 h, read-out: ED50 (dose causing a reduction of the catalepsy score to 50% of the control group score), oral, reserpine 5 mg/kg i.p. 4 h before, scored 45 min after compound
[5] = 100 mg/kg oral, 30 min post-oxotremorine
[6] = 10 mg/kg oral, 10 min post-oxotremorine

NC1C2C3CC4C5CC(C42)C1(c1ccccc1)C53 (stereo not shown) [Compound 19, 4-amino-3-phenyl-(D3)-trishomocubane]
Survival parameter (sum of days survived by six mice, up to 14 days each) ([1]; i.p. 10 mg/kg, 24 hours post inoculation, control 53 (compound 14), 59 (compound 19)): 66
Survival parameter (sum of days survived by six mice, up to 14 days each) ([1]; i.p. 10 mg/kg, 96 hours post inoculation, control 52 (compound 14), 61 (compound 19)): 77
Survival parameter (sum of days survived by six mice, up to 14 days each) ([1]; i.p. 21,5 mg/kg, 24 hours post inoculation, control 53 (compound 14), 59 (compound 19)): 65
Survival parameter (sum of days survived by six mice, up to 14 days each) ([1]; i.p. 21,5 mg/kg, 96 hours post inoculation, control 52 (compound 14), 61 (compound 19)): 71
Survival parameter (sum of days survived by six mice, up to 14 days each) ([1]; i.p. 46,4 mg/kg, 24 hours post inoculation, control 53 (compound 14), 59 (compound 19)): 66
Survival parameter (sum of days survived by six mice, up to 14 days each) ([1]; i.p. 46,4 mg/kg, 96 hours post inoculation, control 52 (compound 14), 61 (compound 19)): 68
Mean salivation score (± s.e.) ([2]; 30 mg/kg oral, 20 min post-oxotremorine): 1,0 ± 0,2
selectivity ratio [3]: 25.6
LD50 at 168 h [3]: 825 mg/kg
ED50 [4]: 32.2 mg/kg

CC12C3CC4C5CC(C(C53)C1NCCc1ccccc1)C42 (stereo not drawn) [Compound 17, 4-(β-phenyl)ethylamino-3-methyl-(D3)-trishomocubane]
Mean tremor score (± s.e.) [2, 5]: 1,4 ± 0,2
Mean salivation score (± s.e.) [2, 5]: 1,0 ± 0,3

NC1C2C3CC4C5CC(C1C53)C42 (stereo not shown) [Compound 11, 4-amino-(D3)-trishomocubane]
selectivity ratio [3]: 7.2
LD50 at 168 h [3]: 1000 mg/kg
ED50 [4]: 139 mg/kg

CC12C3CC4C5CC(C(C53)C1NCc1ccccc1)C42 (stereo not shown) [Compound 16, 4-Benzylamino-3-methyl-(D3)-trishomocubane]
Mean tremor score (± s.e.) [2, 6]: 1,4 ± 0,2
Mean salivation score (± s.e.) [2, 6]: 1,3 ± 0,2
selectivity ratio [3]: > 14.5
LD50 at 168 h [3]: > 1000 mg/kg
ED50 [4]: 69.1 mg/kg

CNC1C2C3CC4C5CC(C42)C1(C)C53 (stereo not shown) [Compound 23, 3-methyl-4-methylamino-(D3)-trishomocubane]
Mean salivation score (± s.e.) ([2]; 30 mg/kg oral, 30 min post-oxotremorine): 0,8 ± 0,2
Mean tremor score (± s.e.) ([2]; 100 mg/kg oral, 10 min post-oxotremorine): 1,2 ± 0,2
